We go through 21 compounds from the Kinase Knowledgebase extract (Sharma et al. 2016).

The structures appear in SMILES notation. Several values for one entry are separate records, joined by “and”; a condition that tells them apart may be missing. Equal entries are not always repeated.

Common to all, as to experiment: Enzyme Assay
Assay [1] has as its target CDK2 (UniProt P24941).
The target of assay [2] is CDK2 (UniProt P24941). This is another data set of the same source.
Assay [3] concerns the target CDK2 (UniProt P24941). The source holds these as a separate data set.

With `Cc1cc(Nc2ncc3ccc(=O)n(C(C)C)c3n2)ccc1Cl`, the IC50 at CDK2 [1] came out at 220 nM; against CDK2 [2], 350 nM.

With `O=c1ccc2cnc(Nc3c(F)cc(F)cc3F)nc2n1C1CCCC1`, the concentration for half-maximal inhibition (IC50) was 470 nM against CDK2 [1] and 330 nM against CDK2 [2]. For the compound `COc1ccc(Nc2ncc3ccc(=O)n(C4CCCC4)c3n2)cc1F`, the IC50 amounted to 35 nM at CDK2 [1] and 75 nM against CDK2 [2]. For `O=c1ccc2cnc(Nc3cccc(OC(F)(F)C(F)F)c3)nc2n1C1CC2CCC1C2` (configuration not stated), the IC50 on CDK2 [3] was determined as 275 nM; at CDK2 [2], 10000 nM. The compound `CCCn1c(=O)ccc2cnc(Nc3cc(OC)c(OC)c(OC)c3)nc21` yielded an IC50 on CDK2 [2] of 1650 nM. For `CCCn1c(=O)ccc2cnc(N(C)c3ccc(O)c(N4CCOCC4)c3)nc21`, the IC50 was 680 nM against CDK2 [1] and 1100 nM on CDK2 [2].

Turning to `O=c1ccc2cnc(Nc3ccc(N4CCCCC4)cc3)nc2n1CCCOC1CCCCO1` (configuration not stated), the figures for the IC50 at CDK2 [3] and on CDK2 [2] were 284 nM and 1900 nM, respectively. Compound `CCC(CC)n1c(=O)ccc2cnc(Nc3ccc(F)c(C)c3)nc21` displayed an IC50 on CDK2 [2] of 155 nM. For the compound `CCC(CC)n1c(=O)ccc2cnc(Nc3cccc(C(F)(F)F)c3)nc21`, the IC50 was 131 nM against CDK2 [1] and 600 nM against CDK2 [2]. With `CCCn1c(=O)ccc2cnc(Nc3ccc(NC(=O)OC(C)(C)C)cc3)nc21`, the IC50 stood at 820 nM at CDK2 [1] and 2450 nM on CDK2 [2]. In the case of `O=c1ccc2cnc(Nc3ccc(N4CCC(CCO)CC4)cc3)nc2n1C1CCCCC1`, the IC50 against CDK2 [3] was found to be 14.2 nM; against CDK2 [2] it was 30 nM.

Take `O=c1ccc2cnc(Nc3ccc4cn[nH]c4c3)nc2n1CC1CC1`: the IC50 on CDK2 [1] was determined as 200 nM; on CDK2 [2] it was 260 nM. The compound `CC(C)n1c(=O)ccc2cnc(Nc3ccc(F)c(Cl)c3)nc21` had an IC50 on CDK2 [2] of 140 nM. As for `CCCn1c(=O)ccc2cnc(Nc3ccc(OC)c(O)c3)nc21`, the IC50 against CDK2 [1] was 240 nM and 670 nM; against CDK2 [2], 960 nM and 1100 nM.

As to `CCCCn1c(=O)ccc2cnc(Nc3cc(Cl)cc(Cl)c3)nc21`, at CDK2 [2], the IC50 worked out at 3780 nM.

On to `O=c1ccc2cnc(Nc3ccc(N4CCCC(O)C4)cc3)nc2n1C1CCCC1` (configuration not stated), for which the IC50 against CDK2 [2] amounted to 44 nM. As for `O=c1ccc2cnc(Nc3ccc(N4CCCCC4)cc3)nc2n1C1CCCCC1`, the IC50 is 66.8 nM against CDK2 [3] and 193 nM against CDK2 [2]. With `CCCn1c(=O)ccc2cnc(Nc3ccc(I)c(Cl)c3)nc21`, the IC50 was found to be 180 nM against CDK2 [1] and 820 nM against CDK2 [2]. Take `O=c1ccc2cnc(Nc3ccc(-n4cccn4)cc3)nc2n1C1CCCC1`: the values for the IC50 on CDK2 [3] and against CDK2 [2] were 35.7 nM and 87 nM, respectively. As for `O=c1ccc2cnc(Nc3ccc(Br)c(C(F)(F)F)c3)nc2n1C1CCCC1`, the half-inhibitory concentration (IC50) against CDK2 [1] was 150 nM; against CDK2 [2], 220 nM. As to `COc1ccc(Nc2ncc3ccc(=O)n(C(C)C)c3n2)cc1`, the half-inhibitory concentration (IC50) at CDK2 [3] worked out at 392 nM; on CDK2 [2], 540 nM.

One may read the IC50 as the concentration at which inhibition is half-maximal. A lower IC50 goes with greater potency in that assay.
